Assays:
MEG-01 cells [1] = test: Apoptosis by phosphatidylserine redistribution (FITC-annexin V flow cytometry) in MEG-01 cells; format: cell-based, human; details: 48 hours; for Percentage of positive cells for phosphatidylserine (cells in apoptosis) in MEG-01 cells: untreated cells 12%
Experimental: Redistribution of plasma membrane phosphatidylserine is a characteristic of cells undergoing apoptosis (Martin et al., J. Exp. Med., 182:1545, 1995). The redistribution of phosphatidylserine in the plasma membrane during apoptosis was measured by flow cytometry using FITC (fluorescein isothiocyanate)-conjugated annexin V (BD Pharmingen, San Diego, Calif.). MEG-01 cells, a human chronic myelogeneous leukemia cell line positive for the Philadelphia chromosome and having a BCR-ABL gene fusion, were incubated at 2.5×10^5 cells/ml for 48 hours with 5.3, 26.5 and 53.0 μM final concentrations of SEQ ID NO:1, SEQ ID NO:2, SEQ ID NO:5, SEQ ID NO:6 and cholesteryl-TEG phosphoramidite molecule. The percentage of cells in apoptosis after exposure to the SEQ ID NOs:1, 2, 5, 6, or cholesteryl-TEG phosphoramidite treatment is reported in Table 2. The percentage of apoptosis in untreated MEG-01 cells was 12%.

HIG-82 cells [2] = test: HIG-82 synovial cell proliferation (MTT reduction); format: cell-based, rabbit; details: 53 μM, 48 hours
Experimental: Adherent HIG-82 cells, a synovial cell line, were incubated at 10×10^5 cells/ml for 48 hours with 53 μM (final concentration) of SEQ ID NO:2, SEQ ID NO:3, SEQ ID NO:4, SEQ ID NO:6, SEQ ID NO:7, or SEQ ID NO:8. Cellular proliferation was measured using dimethylthiazol-diphenyl-tetrazolium (MTT) reduction (Mosman et al., J. Immunol. Methods 65:55, 1983). MTT was measured at a wavelength of 570 nm using a multiple spectrophotometer reader (ELX800, Bio-TEK, Instruments Inc., Winooski, Vt.). The percentage of inhibition, calculated as […]

HIG-82 cells [3] = test: Apoptosis by nuclear DNA fragmentation (TUNEL, flow cytometry) in HIG-82 cells; format: cell-based, rabbit; details: 53 μM
Experimental: Adherent HIG-82 cells were incubated at 1.0×10^5 cells/ml for 48 hours with 53 μM final concentration of SEQ ID NO:1, SEQ ID NO:2, SEQ ID NO:5 or SEQ ID NO:6. Since phosphatidylserine/annexin V detection of apoptosis was not reliable after adherent cell harvesting techniques, such as trypsinization (van Engeland, Cytometry, 31:1, 1998), apoptosis in HIG-82 cells was evaluated using flow cytometry by the detection of fragmented DNA by terminal deoxynucleotidyl transferase enzyme-mediated bromodeoxyuridine triphosphate-biotin nick end-labeling (TUNEL) using a commercial assay (APO-BRDU™ kit; BD Pharmingen). The percentage of cells containing nuclear DNA fragmentation was determined. After 24 hours, untreated HIG-82 cells were essentially negative for nuclear DNA fragmentation.

MEG-01 cells [4] = test: Cell cycle stage in MEG-01 cells (propidium iodide flow cytometry); format: cell-based, human; details: 24 h
Experimental: To determine a cell cycle stage, various assays and procedures known to one skilled in the art may be employed. One such procedure uses a CYCLETEST™ PLUS DNA commercial kit (Becton Dickinson, Franklin Lakes, N.J.). Briefly, nuclei from cells are obtained by dissolving the cell membrane in a nonionic detergent, eliminating the cell cytoskeleton and nuclear proteins with trypsin, digesting the cellular RNA with RNase, and stabilizing the nuclear chromatin with spermine. Propidium iodide is added to the cell nuclei and their fluorescence was analyzed in a flow cytometer equipped with electronic doublet discrimination capability (FACSCalibur, Becton Dickinson, Franklin Lakes, N.J.). Accumulation of cells in G0/G1, early S (SE), mid S (SM), late S (SL) or G2/M phases of the cell cycle may be analyzed using MODFIT LT software (Verity Software House Inc., Topsham, Mass.), or other appropriate software.
Exponentially growing MEG-01 cells (2×10^5 cells/ml) were incubated for 24 h with 0 μM (control), 53 μM of SEQ ID NO:2 or 53 μM of SEQ ID NO:6. The cells were collected, centrifuged, and cell cycle stage was determined.

Hs578T cells = test: Release of nuclear mitotic apparatus protein (NuMA) by Hs578T cells (ELISA); format: cell-based, human; details: Hs578T monolayer, 53 μM, 72 hrs; percentage increase
Experimental: Hs578T cells were cultured as monolayer in negative control conditions or with 53 μM final concentraition of SEQ ID NO:2, 53 μM of SEQ ID NO:6 for 72 hrs. The release of nuclear mitotic apparatus protein (NuMA) was used as a measure of apoptosis. NuMA was determined using a commercial ELISA kit following the manufacturer's protocol. Results are shown in Table 11 and are expressed as the percentage increase in NuMA release compared to control conditions based on optical density measurements.

## 5′ OH-GGGAGG-OH 3′ (listed as DNA, chemistry not fully specified) [SEQ ID NO:2]
MEG-01 cells [1]; 5.3 μM
  Percentage of positive cells for phosphatidylserine (cells in apoptosis) in MEG-01 cells: 12%
MEG-01 cells [1]; 26.5 μM
  Percentage of positive cells for phosphatidylserine (cells in apoptosis) in MEG-01 cells: 12%
MEG-01 cells [1]; 53.0 μM
  Percentage of positive cells for phosphatidylserine (cells in apoptosis) in MEG-01 cells: 12%
MEG-01 cells [1]; translocation of phosphatidylserine, up to 53.0 μM
  Induction of apoptosis in MEG-01 cells (in words): inactive
HIG-82 cells [2]
  Inhibition of proliferation of synovial HIG-82 cells (in words): did not inhibit proliferation
HIG-82 cells [2]; MTT
  Inhibition of HIG-82 cell proliferation, inhibition (%): 6%
HIG-82 cells [3]; 48 hours, TUNEL
  Percentage of cells containing DNA fragmentation (cells in apoptosis) in HIG-82 cells: 1%
HIG-82 cells [3]; fragmented nuclear DNA
  Induction of apoptosis in HIG-82 cells (in words): inactive
MEG-01 cells [4]; 53 μM
  Induction of cell cycle arrest in MEG-01 cells (in words): inactive
MEG-01 cells [4]; MEG-01, 53 μM, untreated 10.8
  % of cells in phase SM: 11.6%
MEG-01 cells [4]; MEG-01, 53 μM, untreated 17.8
  % of cells in phase SL + G2/M: 19.8%
MEG-01 cells [4]; MEG-01, 53 μM, untreated 71.4
  % of cells in phase G0/G1 + SE: 68.6%
Hs578T cells
  NuMA release compared to control (%): +8%

Source: patent publication US7635686B2, “Therapeutically useful triethyleneglycol cholesteryl oligonucleotides” (Bioniche Life Sciences, Inc., priority 2001, dated 2009)
